Data reported in patent US12319697B2, “Process for preparing imidazole derivatives” (Bayer Aktiengesellschaft, priority 2018, dated 2025).

Tests used:
[1] = log P[a] by reversed-phase HPLC (C18), LC-UV in the acidic range, EEC Directive 79/831 Annex V.A8; assay type: physicochemical; settings: 0.9 ml/l formic acid in water and 1.0 ml/l formic acid in acetonitrile, gradient 10% to 95% acetonitrile; for chromatographic logP: reversed-phase HPLC column (C18)
Description: (§1) The log P values were determined according to EEC Directive 79/831 Annex V.A8 by HPLC (high-performance liquid chromatography) on a reversed-phase column (C18) using the following methods: The log P[a] value is determined by LC-UV measurement in the acidic range using 0.9 ml/1 formic acid in water and 1.0 ml/1 formic acid in acetonitrile as mobile phases (linear gradient from 10% acetonitrile to 95% acetonitrile). Calibration was carried out using a homologous series of straight-chain alkan-2-ones (having 3 to 16 carbon atoms) with known log P values. The values between successive alkanones are determined by linear regression.

[2] = log P[n] by reversed-phase HPLC (C18), LC-UV in the neutral range, EEC Directive 79/831 Annex V.A8; assay type: physicochemical; settings: 79 mg/l ammonium carbonate in water and acetonitrile, gradient 10% to 95% acetonitrile; for chromatographic logP: reversed-phase HPLC column (C18)
Description: as §1, with “acetonitrile). The log P[n] value is determined by LC-UV measurement in the neutral range using 79 mg/l ammonium carbonate in water and acetonitrile as mobile phases (linear gradient from 10% acetonitrile to 95% acetonitrile).” for “acetonitrile).”

SMILES | chromatographic logP [1] | chromatographic logP [2] | log P[a] ([1]; listed as Comparative Example) | log P[n] ([2]; listed as Comparative Example)
CCSc1c(-c2nc3cc(SC(F)(F)F)nnc3n2C)nc(-c2ccc(Cl)cc2)n1C | 4.51 | 4.34 | – | –
CCSc1c(-c2nc3cc(C(F)(F)C(F)(F)F)nnc3n2C)nc(-c2ccc(Cl)cc2)n1C | 4.82 | 4.6 | – | –
CCSc1c(-c2nc3cc(SC(F)(F)F)nnc3n2C)nc(C2CC2)n1C | 3.5 | 3.4 | – | –
CCSc1c(-c2nc3cc(C(F)(F)C(F)(F)F)nnc3n2C)nc(C2CC2)n1C | 3.85 | 3.75 | – | –
CCSc1c(-c2nc3cc(C(F)(F)C(F)(F)F)nnc3n2C)nc(-c2ccc(Cl)s2)n1C | 5.14 | 4.92 | – | –
CCSc1c(-c2nc3cc(C(F)(F)C(F)(F)F)nnc3n2C)nc(-c2ccc(Cl)cn2)n1C | 5.25 | 4.66 | – | –
CCSc1c(-c2nc3cc(C(F)(F)F)nnc3n2C)ncn1C [Example 1, 6-[5-(ethylsulfanyl)-1-methyl-1H-imidazol-4-yl]-7-methyl-3-(trifluoromethyl)-7H-imidazo[4,5-c]pyridazine] | 2.26 | 2.37 | – | –
CCSc1c(-c2nc3cc(C(F)(F)F)nnc3n2C)nc(-c2ccc(Cl)cc2)n1C [Example 2, 6-[2-(4-chlorophenyl)-5-(ethylsulfanyl)-1-methyl-1H-imidazol-4-yl]-7-methyl-3-(trifluoromethyl)-7H-imidazo[4,5-c]pyridazine] | 4.23 | 4.08 | 4.35 | 4.07
CCSc1c(-c2nc3cc(C(F)(F)C(F)(F)F)nnc3n2C)ncn1C [Example 3, 6-[5-(ethylsulfanyl)-1-methyl-1H-imidazol-4-yl]-7-methyl-3-(pentafluoroethyl)-7H-imidazo[4,5-c]pyridazine] | 2.88 | 2.86 | – | –
CCS(=O)(=O)c1c(-c2nc3cc(C(F)(F)C(F)(F)F)nnc3n2C)ncn1C [Example 4, 6-[5-(ethylsulfonyl)-1-methyl-1H-imidazol-4-yl]-7-methyl-3-(pentafluoroethyl)-7H-imidazo[4,5-c]pyridazine] | 2.2 | 2.21 | – | –
CCSc1c(-c2nc3cc(C(F)(F)C(F)(F)F)nnc3n2C)nc(Br)n1C [Example 5, 6-[2-bromo-5-(ethylsulfanyl)-1-methyl-1H-imidazol-4-yl]-7-methyl-3-(pentafluoroethyl)-7H-imidazo[4,5-c]pyridazine] | 3.76 | – | – | –
CCSc1c(-c2nc3cc(C(F)(F)C(F)(F)F)ncc3n2C)ncn1C [Example 6, 2-[5-(ethylsulfanyl)-1-methyl-1H-imidazol-4-yl]-3-methyl-6-(pentafluoroethyl)-3H-imidazo[4,5-c]pyridine] | 2.7 | 2.71 | – | –
CCSc1c(-c2nc3cc(Br)cnc3n2C)nc(C2CC2)n1C [Example 7, 6-bromo-2-[2-cyclopropyl-5-(ethylsulfanyl)-1-methyl-1H-imidazol-4-yl]-3-methyl-3H-imidazo[4,5-b]pyridine] | 2.92 | 3.23 | – | –
CCSc1c(I)ncn1C [Example 8 Step 1, 5-(ethylsulfanyl)-4-iodo-1-methyl-1H-imidazole] | 1.61 | 1.91 | – | –
CCSc1c(I)nc(Br)n1C [Example 8 Step 2, 2-bromo-5-(ethylsulfanyl)-4-iodo-1-methyl-1H-imidazole] | 2.77 | 2.68 | – | –
Cn1cnc2cc(C(F)(F)F)ncc21 [Example 8 Step 3, 3-methyl-6-(trifluoromethyl)-3H-imidazo[4,5-c]pyridine] | 1.04 | 1.1 | – | –
CCSc1c(-c2nc3cc(C(F)(F)F)ncc3n2C)nc(Br)n1C [Example 8, 2-[2-bromo-5-(ethylsulfanyl)-1-methyl-1H-imidazol-4-yl]-3-methyl-6-(trifluoromethyl)-3H-imidazo[4,5-c]pyridine] | 3.04 | 2.85 | – | –
